Measurements as given in US10358434B2, “2-(3-pyridinyl)-1H-benzimidazole derivative compound and medicament containing same” (NIHON MEDI-PHYSICS CO., LTD., priority 2014, dated 2019).

Experiments:
[1] = Plasma stability evaluation (TLC analysis); type: in vitro ADME; conditions: 37° C., 60 minutes, TLC analysis
How it was run: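 Radiolabelled compounds were incubated in heparin-treated pooled normal human plasma at 37° C for 60 minutes. After methanol deproteinization and centrifugation, stability was assessed by TLC under the conditions used for each compound's synthesis.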

[2] = In vivo kinetics experiment (radioactivity distribution); parameters: species or system Wistar male rat; conditions: rat i.v., mean ± SD
How it was run: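 Male Wistar rats (9 weeks) under isoflurane received approximately 1 to 3.7 MBq radiotracer in saline with 1 w/v % ascorbic acid by tail-vein injection. At 10, 30 and 60 min, rats were exsanguinated; blood, organs and remaining body weighed and counted, giving % ID/g and adrenal-to-tissue ratios.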

[3] = system: human adrenal gland section expressing aldosterone-producing adenoma; test: In vitro autoradiography using human adrenal adenoma; type: binding; conditions: section of FIG. 17(b)
How it was run: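 Frozen 7-μm sections of human adrenal bearing aldosterone-producing adenoma were immersed 10 min in radioligand (5-33 kBq/mL) in PBS with 1% fatty-acid-free BSA, washed, then exposed to imaging plates for 16-20 h. Equal-area ROI PSL in adenoma (B2) versus normal cortex (B1) gave B2/B1, corrected for nuclide half-life, added activity and exposure time.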

## FCCn1c(-c2cncc(Cn3ccnc3)c2)nc2ccc([123I])cc21 [[^123I] 604, 1-(2-Fluoroethyl)-2-[5-{(imidazol-1-yl)methyl}pyridin-3-yl]-6-[^123I]iodobenzimidazole]
[1]
  Radiochemical purity after incubation in human plasma: 85%
[2]; 10 min after administration
  Adrenal gland/blood ratio of radioactivity accumulation: 75.41 ± 30.78
  Adrenal gland/fat ratio of radioactivity accumulation: 92.23 ± 49.88
  Adrenal gland/kidney ratio of radioactivity accumulation: 4.89 ± 2.15
  Adrenal gland/liver ratio of radioactivity accumulation: 2.48 ± 1.00
  Adrenal gland/muscle ratio of radioactivity accumulation: 67.00 ± 51.23
  Adrenal gland/small intestine ratio of radioactivity accumulation: 7.85 ± 3.21
  Radioactivity distribution Adrenal gland: 10.24 ± 4.48 % ID/g
  Radioactivity distribution Bladder (including urine): 0.43 ± 0.13 % ID/g
  Radioactivity distribution Blood: 0.13 ± 0.01 % ID/g
  Radioactivity distribution Fat: 0.11 ± 0.01 % ID/g
  Radioactivity distribution Femur: 0.85 ± 0.40 % ID/g
  Radioactivity distribution Heart: 0.65 ± 0.09 % ID/g
  Radioactivity distribution Kidney: 2.09 ± 0.09 % ID/g
  Radioactivity distribution Large intestine: 0.11 ± 0.01 % ID/g
  Radioactivity distribution Liver: 4.09 ± 0.45 % ID/g
  Radioactivity distribution Lung: 0.98 ± 0.16 % ID/g
  Radioactivity distribution Muscle (lower limbs): 0.18 ± 0.05 % ID/g
  Radioactivity distribution Remaining whole body: 0.24 ± 0.01 % ID/g
  Radioactivity distribution Small intestine: 1.29 ± 0.12 % ID/g
  Radioactivity distribution Spleen: 5.59 ± 1.78 % ID/g
  Radioactivity distribution Stomach: 0.66 ± 0.34 % ID/g
  Radioactivity distribution Testis: 0.04 ± 0.01 % ID/g
  Radioactivity distribution Whole brain: 0.01 ± 0.00 % ID/g
[2]; 30 min after administration
  Adrenal gland/blood ratio of radioactivity accumulation: 170.18 ± 126.19
  Adrenal gland/fat ratio of radioactivity accumulation: 156.19 ± 135.29
  Adrenal gland/kidney ratio of radioactivity accumulation: 9.69 ± 6.36
  Adrenal gland/liver ratio of radioactivity accumulation: 8.55 ± 5.73
  Adrenal gland/muscle ratio of radioactivity accumulation: 100.20 ± 67.99
  Adrenal gland/small intestine ratio of radioactivity accumulation: 4.37 ± 1.61
  Radioactivity distribution Adrenal gland: 15.46 ± 8.64 % ID/g
  Radioactivity distribution Bladder (including urine): 1.13 ± 0.19 % ID/g
  Radioactivity distribution Blood: 0.10 ± 0.02 % ID/g
  Radioactivity distribution Fat: 0.12 ± 0.03 % ID/g
  Radioactivity distribution Femur: 0.83 ± 0.03 % ID/g
  Radioactivity distribution Heart: 0.64 ± 0.04 % ID/g
  Radioactivity distribution Kidney: 1.65 ± 0.27 % ID/g
  Radioactivity distribution Large intestine: 0.14 ± 0.02 % ID/g
  Radioactivity distribution Liver: 1.89 ± 0.21 % ID/g
  Radioactivity distribution Lung: 0.97 ± 0.10 % ID/g
  Radioactivity distribution Muscle (lower limbs): 0.16 ± 0.02 % ID/g
  Radioactivity distribution Remaining whole body: 0.27 ± 0.01 % ID/g
  Radioactivity distribution Small intestine: 3.40 ± 0.80 % ID/g
  Radioactivity distribution Spleen: 6.71 ± 0.48 % ID/g
  Radioactivity distribution Stomach: 0.61 ± 0.14 % ID/g
  Radioactivity distribution Testis: 0.05 ± 0.01 % ID/g
  Radioactivity distribution Whole brain: 0.01 ± 0.00 % ID/g
[2]; 60 min after administration
  Adrenal gland/blood ratio of radioactivity accumulation: 329.57 ± 56.14
  Adrenal gland/fat ratio of radioactivity accumulation: 161.46 ± 40.00
  Adrenal gland/kidney ratio of radioactivity accumulation: 15.22 ± 1.37
  Adrenal gland/liver ratio of radioactivity accumulation: 19.61 ± 2.12
  Adrenal gland/muscle ratio of radioactivity accumulation: 130.19 ± 7.34
  Adrenal gland/small intestine ratio of radioactivity accumulation: 5.02 ± 1.64
  Radioactivity distribution Adrenal gland: 18.65 ± 1.67 % ID/g
  Radioactivity distribution Bladder (including urine): 3.04 ± 1.32 % ID/g
  Radioactivity distribution Blood: 0.06 ± 0.01 % ID/g
  Radioactivity distribution Fat: 0.12 ± 0.04 % ID/g
  Radioactivity distribution Femur: 0.90 ± 0.10 % ID/g
  Radioactivity distribution Heart: 0.56 ± 0.01 % ID/g
  Radioactivity distribution Kidney: 1.23 ± 0.01 % ID/g
  Radioactivity distribution Large intestine: 0.55 ± 0.52 % ID/g
  Radioactivity distribution Liver: 0.96 ± 0.10 % ID/g
  Radioactivity distribution Lung: 0.78 ± 0.03 % ID/g
  Radioactivity distribution Muscle (lower limbs): 0.14 ± 0.01 % ID/g
  Radioactivity distribution Remaining whole body: 0.28 ± 0.04 % ID/g
  Radioactivity distribution Small intestine: 3.98 ± 1.32 % ID/g
  Radioactivity distribution Spleen: 5.62 ± 1.11 % ID/g
  Radioactivity distribution Stomach: 0.89 ± 0.21 % ID/g
  Radioactivity distribution Testis: 0.05 ± 0.01 % ID/g
  Radioactivity distribution Whole brain: 0.01 ± 0.00 % ID/g
[3]
  B2/B1 accumulation ratio: 1.93
[3]; site 71b
  B2 (PSL value, aldosterone-producing adenoma): 3493
[3]; site 72b
  B1 (PSL value, normal adrenal cortex): 1813
